According to patent US8759318B2, “Phosphoramidate derivatives of guanosine nucleoside compounds for treatment of viral infections” (Inhibitex, Inc., priority 2009, dated 2014):

Legend:
[1] = Protide stability in normal plasma, human; type: in vitro ADME; details: 37° C.
Procedure: (§1) Selected nucleoside 5′-phosphoramidates were examined for stability in human, cynomolgous monkey, rat and mouse plasma at 37° C. at both 30 min and 90 min time points.
(§2) Protide Stability in Normal Plasma: Plasma samples were prepared for analysis as follows. 50 μl of each test sample were distributed a 96-well V-bottom plate. 200 μl of acetonitrile containing 10 ng/ml of an internal standard was added to each plasma sample. The precipitated samples were centrifuged at 2500 rpm, 4° C. for 20 minutes in a Sorvall RT6000S centrifuge (Thermo Scientific, Waltham Mass.) and 100 μl of supernatant from each sample was transferred into a 96 deep well plate followed by the addition of 100 μl H2O to each sample. Samples were covered, mixed well by vortexing and maintained at 2-8° C. before and during analysis. 15 μl of each test sample was analyzed for protide concentrations by liquid chromatography coupled to tandem mass spectrometry (LC-MS/MS). Liquid chromatography was performed with an Agilent 1100 Series HPLC system equipped with a Synergi 4 μm Polar-RP, 30×2.0 mm column (Phenomenex, Torrance, Calif.). The HPLC system was coupled to an API 4000 triple quadrupole mass spectrometer (Applied Biosystems, Framingham, Mass.). Mass spectrometry was performed in positive ion mode and data was analyzed using Analyst® v1.4.2 software (Applied Biosystems, Framingham, Mass.). Data was presented as the percentage of compound recovered as compared to the 0 time point control.

[2] = Protide stability in normal plasma, cynomolgous monkey; type: in vitro ADME; details: 37° C.
Procedure: as §1, §2

[3] = Protide stability in normal plasma, rat; type: in vitro ADME; details: 37° C.
Procedure: as §1, §2

[4] = Protide stability in normal plasma, mouse; type: in vitro ADME; details: 37° C.
Procedure: as §1, §2

in vitro = details: human
[5] = test system: HCV replicon (Genotype 1b); assay: Luciferase genotype 1b replicon potency assay; details: Hepatitis C virus, GETYPE1B, read-out: IC50 μM, HCV genotype 1b luciferase replicon, Renilla luciferase reporter
[6] = mouse, in vivo, po, 50 mg/kg; for Cmax / T1/2 / Tmax: female, ICR

| SMILES | % Compound Remaining Compared to %100 Acetonitrile Control ([1]; 30 min) [%] | % Compound Remaining Compared to %100 Acetonitrile Control ([1]; 1.5 h) [%] | % Compound Remaining Compared to %100 Acetonitrile Control ([2]; 30 min) [%] | % Compound Remaining Compared to %100 Acetonitrile Control ([2]; 1.5 h) [%] | % Compound Remaining Compared to %100 Acetonitrile Control ([3]; 30 min) [%] | % Compound Remaining Compared to %100 Acetonitrile Control ([3]; 1.5 h) [%] | % Compound Remaining Compared to %100 Acetonitrile Control ([4]; 30 min) [%] | % Compound Remaining Compared to %100 Acetonitrile Control ([4]; 1.5 h) [%] | CC50 (in vitro) [µM] | IC50 [5] [µM] | Cmax [6] [ng/g] | T1/2 [6] [h] | Tmax [6] [h] | AUC0-6 [6] [ng·h/g] | AUC0-24 [6] [ng·h/g] |
| --- | --- | --- | --- | --- | --- | --- | --- | --- | --- | --- | --- | --- | --- | --- | --- |
| CC(C)[C@H](NP(=O)(OC[C@H]1OC(n2cnc3c(=O)[nH]c(N)nc32)[C@](C)(O)[C@@H]1O)Oc1cccc2ccccc12)C(=O)OCC(C)(C)C (stereo partly drawn) [B, reference compound] | 74.7 | 78.1 | 84.5 | 84.9 | 66.7 | 42.0 | 68.3 | 32.3 | – | – | – | – | – | – | – |
| COc1nc(N)nc2c1ncn2C1O[C@H](COP(=O)(N[C@@H](C)C(=O)OCc2ccccc2)Oc2cccc3ccccc23)[C@@H](O)[C@@]1(C)O (stereo partly drawn) [Example 13] | 97.2 | 85.4 | 89.1 | 77.0 | – | – | <3.9 | – | 14 | 0.026 | – | – | – | – | – |
| COc1nc(N)nc2c1ncn2C1O[C@H](COP(=O)(N[C@H](C(=O)OCc2ccccc2)C(C)C)Oc2cccc3ccccc23)[C@@H](O)[C@@]1(C)O (stereo partly drawn) [Example 36] | 70.3 | 74.1 | 93.7 | 96 | 16.9 | 1.4 | 0.4 | 0 | 34 | 0.09 | 1209.7 | 2.0 | 4.0 | 5055 | 6356 |
| COc1nc(N)nc2c1ncn2C1O[C@H](COP(=O)(N[C@H](C(=O)O[C@@H](C)c2ccccc2)C(C)C)Oc2cccc3ccccc23)[C@@H](O)[C@@]1(C)O (stereo partly drawn) [Example 38, (2S)-((S)-1-phenylethyl) 2-((((2R,3R,4R)-5-(2-amino-6-methoxy-9H-purin-9-yl)-3,4-dihydroxy-4-methyltetrahydrofuran-2-yl)methoxy) (naphthalen-1-yloxy)phosphorylamino)-3-methylbutanoate] | – | – | – | – | – | – | – | – | 29 | 0.94 | 3130.0 | 4.3 | 4.0 | 14380 | 26837 |
| COc1nc(N)nc2c1ncn2C1O[C@H](COP(=O)(N[C@H](C(=O)OC2CCOCC2)C(C)C)Oc2cccc3ccccc23)[C@@H](O)[C@@]1(C)O (stereo partly drawn) [Example 47, (2S)-tetrahydro-2H-pyran-4-yl 2-((((2R,3R,4R)-5-(2-amino-6-methoxy-9H-purin-9-yl)-3,4-dihydroxy-4-methyltetrahydrofuran-2-yl)methoxy)(naphthalen-1-yloxy)phosphorylamino)-3-methylbutanoate] | 105.1 | 129.5 | 112.5 | 118.5 | 71.3 | 57.3 | 74.3 | 67.4 | > 100 | 0.18 | – | – | – | – | – |
| COc1nc(N)nc2c1ncn2C1O[C@H](COP(=O)(N[C@H](C(=O)OCC(C)(C)C)C(C)C)Oc2c(C)ccc3ccccc23)[C@@H](O)[C@@]1(C)O (stereo partly drawn) [Example 54] | 80.4 | 93.5 | 119.3 | 124.2 | 60.6 | 58.4 | 60.7 | 45.7 | 23 | 1.5 | – | – | – | – | – |
